Measured values taken from ChEMBL document CHEMBL1150783, “In vitro activities of CG400549, a novel FabI inhibitor, against recently isolated clinical staphylococcal strains in Korea” (2007).
≈ marks a conversion by molar mass, not a printed value. Calls of active or inactive are those of the source. No cut-off for these calls is given here.

Experiments:
Staphylococcus sp. [1] = test: Antibacterial activity against methicillin-resistant coagulase-negative Staphylococcus sp. by CLSI dilution method; type: functional
Staphylococcus aureus [2] = test: Antibacterial activity against methicillin-resistant Staphylococcus aureus isolate assessed as percent susceptible isolates by CLSI dilution method; type: functional
Staphylococcus sp. [3] = test: (§1) Antibacterial activity against methicillin-susceptible coagulase-negative Staphylococcus sp. assessed as percent susceptible isolates by CLSI dilution method; type: functional
Staphylococcus sp. [4] = test: as §1; type: functional; remark: listed apart in the source
Staphylococcus sp. [5] = test: Antibacterial activity against methicillin-susceptible coagulase-negative Staphylococcus sp. by CLSI dilution method; type: functional
Staphylococcus aureus [6] = test: Antibacterial activity against methicillin-susceptible Staphylococcus aureus isolate by CLSI dilution method; type: functional
Staphylococcus aureus [7] = test: Antibacterial activity against methicillin-susceptible Staphylococcus aureus isolate assessed as […] isolates by CLSI dilution method; type: functional
Staphylococcus aureus [8] = test: Antibacterial activity against methicillin-resistant Staphylococcus aureus by CLSI dilution method; type: functional
Campylobacter fetus = test: Antibacterial activity against Campylobacter fetus by CLSI dilution method; type: functional, organism-based
Escherichia coli = test: Antibacterial activity against sEscherichia coli by CLSI dilution method; type: functional, organism-based
Nocardia sp. = test: Antibacterial activity against Nocardia sp. by CLSI dilution method; type: functional, organism-based
Staphylococcus hominis [9] = test: Antibacterial activity against methicillin-susceptible coagulase-negative Staphylococcus hominis by CLSI dilution method; type: functional
Neisseria gonorrhoeae = test: Antibacterial activity against Neisseria gonorrhoeae by CLSI dilution method; type: functional, organism-based
Listeria monocytogenes = test: Antibacterial activity against Listeria monocytogenes by CLSI dilution method; type: functional, organism-based
Staphylococcus simulans = test: Antibacterial activity against methicillin-susceptible coagulase-negative Staphylococcus simulans by CLSI dilution method; type: functional
[10] = tested on: Staphylococcus haemolyticus; test: Antibacterial activity against methicillin-resistant coagulase-negative Staphylococcus haemolyticus by CLSI dilution method; type: functional
[11] = tested on: Staphylococcus haemolyticus; test: Antibacterial activity against methicillin-susceptible coagulase-negative Staphylococcus haemolyticus by CLSI dilution method; type: functional
[12] = tested on: Staphylococcus epidermidis; test: Antibacterial activity against methicillin-susceptible coagulase-negative Staphylococcus epidermidis by CLSI dilution method; type: functional
Acinetobacter baumannii = test: Antibacterial activity against sAcinetobacter baumannii by CLSI dilution method; type: functional, organism-based
Mammaliicoccus sciuri = test: Antibacterial activity against methicillin-resistant coagulase-negative Staphylococcus sciuri by CLSI dilution method; type: functional
[13] = tested on: Staphylococcus epidermidis; test: Antibacterial activity against methicillin-resistant coagulase-negative Staphylococcus epidermidis by CLSI dilution method; type: functional
Moraxella catarrhalis = test: Antibacterial activity against Moraxella catarrhalis by CLSI dilution method; type: functional, organism-based
Vibrio sp. = test: Antibacterial activity against Vibrio sp. by CLSI dilution method; type: functional, organism-based
Pseudomonas aeruginosa = test: Antibacterial activity against sPseudomonas aeruginosa by CLSI dilution method; type: functional, organism-based
Corynebacterium = test: Antibacterial activity against […] by CLSI dilution method; type: functional, organism-based
Serratia marcescens = test: Antibacterial activity against Serratia marcescens by CLSI dilution method; type: functional, organism-based
Aeromonas sp. = test: Antibacterial activity against Aeromonas sp. by CLSI dilution method; type: functional, organism-based
Haemophilus influenzae = test: Antibacterial activity against sHaemophilus influenzae by CLSI dilution method; type: functional, organism-based
Klebsiella pneumoniae = test: Antibacterial activity against Klebsiella pneumoniae by CLSI dilution method; type: functional, organism-based
Streptococcus = test: Antibacterial activity against Streptococcus by CLSI dilution method; type: functional, organism-based
Citrobacter freundii = test: Antibacterial activity against Citrobacter freundii by CLSI dilution method; type: functional, organism-based
Morganella morganii = test: Antibacterial activity against Morganella morganii by CLSI dilution method; type: functional, organism-based
Enterobacter cloacae = test: Antibacterial activity against sEnterobacter cloacae by CLSI dilution method; type: functional, organism-based
[14] = tested on: Staphylococcus saprophyticus; test: Antibacterial activity against methicillin-resistant coagulase-negative Staphylococcus saprophyticus by CLSI dilution method; type: functional
Staphylococcus hominis [15] = test: Antibacterial activity against methicillin-resistant coagulase-negative Staphylococcus hominis by CLSI dilution method; type: functional
Helicobacter pylori = test: Antibacterial activity against Helicobacter pylori by CLSI dilution method; type: functional, organism-based
Enterococcus = test: Antibacterial activity against Enterococcus by CLSI dilution method; type: functional, organism-based
Staphylococcus aureus [16] = test: (§2) Antibacterial activity against methicillin-resistant Staphylococcus aureus isolate assessed as percent resistant isolates by CLSI dilution method; type: functional
Staphylococcus sp. [17] = test: Antibacterial activity against methicillin-susceptible coagulase-negative Staphylococcus sp. assessed as percent resistant isolates by CLSI dilution method; type: functional
Staphylococcus aureus [18] = test: as §2; type: functional; remark: listed apart in the source
Staphylococcus sp. [19] = test: Antibacterial activity against methicillin-resistant coagulase-negative Staphylococcus sp. assessed as percent resistant isolates by CLSI dilution method; type: functional

CC(=O)NC[C@H]1CN(c2ccc(N3CCOCC3)c(F)c2)C(=O)O1 [LINEZOLID]
MIC50 (Staphylococcus sp. [1]): 1 µg/mL (≈ 2.96 µM)
MIC90 (Staphylococcus sp. [1]): 2 µg/mL (≈ 5.93 µM)
Activity (Staphylococcus aureus [2]): 100%
Activity (Staphylococcus sp. [3]): 100%
Activity (Staphylococcus sp. [4]): 100%
MIC50 (Staphylococcus sp. [5]): 1 µg/mL (≈ 2.96 µM)
MIC90 (Staphylococcus sp. [5]): 2 µg/mL (≈ 5.93 µM)
MIC50 (Staphylococcus aureus [6]): 4 µg/mL (≈ 11.9 µM)
MIC90 (Staphylococcus aureus [6]): 4 µg/mL (≈ 11.9 µM)
Activity (Staphylococcus aureus [7]): 100%
MIC50 (Staphylococcus aureus [8]): 2 µg/mL (≈ 5.93 µM)
MIC90 (Staphylococcus aureus [8]): 2 µg/mL (≈ 5.93 µM)

Cc1c(N)cccc1Cn1ccc(OCCc2cccs2)cc1=O [CG-400549]
Activity (Campylobacter fetus): Active
Activity (Escherichia coli): Active
Activity (Nocardia sp.): Active
MIC50 (Staphylococcus sp. [1]): 0.5 µg/mL (≈ 1.47 µM)
MIC90 (Staphylococcus sp. [1]): 4 µg/mL (≈ 11.7 µM)
MIC (Staphylococcus hominis [9]): 4 µg/mL (≈ 11.7 µM)
Activity (Neisseria gonorrhoeae): Active
Activity (Listeria monocytogenes): Active
MIC (Staphylococcus simulans): 4 µg/mL (≈ 11.7 µM)
MIC [10]: 2 µg/mL (≈ 5.87 µM)
MIC [11]: 2 µg/mL (≈ 5.87 µM)
MIC [12]: 8 µg/mL (≈ 23.5 µM)
Activity (Acinetobacter baumannii): Active
MIC (Mammaliicoccus sciuri): 4 µg/mL (≈ 11.7 µM)
MIC [13]: 4 µg/mL (≈ 11.7 µM)
Activity (Moraxella catarrhalis): Active
Activity (Vibrio sp.): Active
Activity (Pseudomonas aeruginosa): Active
Activity (Corynebacterium): Active
Activity (Serratia marcescens): Active
Activity (Aeromonas sp.): Active
Activity (Haemophilus influenzae): Active
Activity (Klebsiella pneumoniae): Active
MIC50 (Staphylococcus sp. [5]): 0.5 µg/mL (≈ 1.47 µM)
MIC90 (Staphylococcus sp. [5]): 8 µg/mL (≈ 23.5 µM)
Activity (Streptococcus): Active
Activity (Citrobacter freundii): Active
MIC50 (Staphylococcus aureus [6]): 0.5 µg/mL (≈ 1.47 µM)
MIC90 (Staphylococcus aureus [6]): 0.5 µg/mL (≈ 1.47 µM)
Activity (Morganella morganii): Active
Activity (Enterobacter cloacae): Active
MIC [14]: 8 µg/mL (≈ 23.5 µM)
MIC (Staphylococcus hominis [15]): 4 µg/mL (≈ 11.7 µM)
Activity (Helicobacter pylori): Active
MIC50 (Staphylococcus aureus [8]): 0.5 µg/mL (≈ 1.47 µM)
MIC90 (Staphylococcus aureus [8]): 0.5 µg/mL (≈ 1.47 µM)
Activity (Enterococcus): Active

C[C@H]1COc2c(N3CCN(C)CC3)c(F)cc3c(=O)c(C(=O)O)cn1c23.C[C@H]1COc2c(N3CCN(C)CC3)c(F)cc3c(=O)c(C(=O)O)cn1c23.O [LEVOFLOXACIN]
MIC50 (Staphylococcus sp. [1]): 4 µg/mL
MIC90 (Staphylococcus sp. [1]): 32 µg/mL
Activity (Staphylococcus aureus [16]): 0%
Activity (Staphylococcus aureus [2]): 7%
Activity (Staphylococcus sp. [17]): 0%
Activity (Staphylococcus aureus [18]): 93%
Activity (Staphylococcus sp. [3]): 100%
Activity (Staphylococcus sp. [4]): 35%
MIC50 (Staphylococcus sp. [5]): 0.25 µg/mL
MIC90 (Staphylococcus sp. [5]): 0.25 µg/mL
MIC50 (Staphylococcus aureus [6]): 0.25 µg/mL
MIC90 (Staphylococcus aureus [6]): 0.5 µg/mL
Activity (Staphylococcus aureus [7]): 100%
MIC50 (Staphylococcus aureus [8]): 16 µg/mL
MIC90 (Staphylococcus aureus [8]): > 128 µg/mL
Activity (Staphylococcus sp. [19]): 60%

Cc1onc(-c2ccccc2)c1C(=O)N[C@@H]1C(=O)N2[C@@H]1SC(C)(C)[C@@H]2C(=O)O [OXACILLIN]
MIC50 (Staphylococcus sp. [1]): 32 µg/mL (≈ 79.7 µM)
MIC90 (Staphylococcus sp. [1]): > 128 µg/mL
Activity (Staphylococcus aureus [16]): 0%
Activity (Staphylococcus aureus [2]): 0%
Activity (Staphylococcus sp. [17]): 0%
Activity (Staphylococcus aureus [18]): 100%
Activity (Staphylococcus sp. [3]): 100%
Activity (Staphylococcus sp. [4]): 0%
MIC50 (Staphylococcus sp. [5]): 0.12 µg/mL (≈ 0.299 µM)
MIC90 (Staphylococcus sp. [5]): 0.25 µg/mL (≈ 0.623 µM)
MIC50 (Staphylococcus aureus [6]): 0.5 µg/mL (≈ 1.25 µM)
MIC90 (Staphylococcus aureus [6]): 0.5 µg/mL (≈ 1.25 µM)
Activity (Staphylococcus aureus [7]): 100%
MIC50 (Staphylococcus aureus [8]): > 128 µg/mL
MIC90 (Staphylococcus aureus [8]): > 128 µg/mL
Activity (Staphylococcus sp. [19]): 100%
